Source: DBAASP
In brackets after ≈: the same amount, converted by molar mass. Several values for one entry are separate records, joined by “and”; a condition that tells them apart may be missing. Identical values can stand only once.

How the values were obtained:
Assay in all cases: ≥ marks a high value that may be exact or a test limit, other limits are often not marked, values filed in µg/mL are converted to µM
Micrococcus luteus = system: Micrococcus luteus
[1] = system: Escherichia coli ATCC 25922
[2] = system: Escherichia coli NBRC 14237
[3] = system: Micrococcus luteus NBRC 12708
[4] = system: Staphylococcus aureus NBRC 12732
[5] = system: Staphylococcus aureus ATCC 25923
[6] = system: Pseudomonas aeruginosa ATCC 15692
Saccharomyces cerevisiae = system: Saccharomyces cerevisiae
[7] = system: Pseudomonas aeruginosa NBRC 12582
[8] = system: Staphylococcus aureus IFO 12732
[9] = system: Bacillus subtilis IFO 3134
[10] = system: Pseudomonas aeruginosa IFO 12582
[11] = system: Escherichia coli IFO 12734
[12] = system: Fusarium oxysporum f. sp. lycopersici ATCC 201829
[13] = system: Aspergillus niger CECT 2694
[14] = system: Rhizopus stolonifer CECT 2344
[15] = system: Penicillium expansum EPS 26
[16] = system: Salmonella enterica subsp. enterica serovar Typhimurium LT2
[17] = system: Micrococcus luteus ATCC 9341
[18] = system: Bacillus subtilis ATCC 6051
Escherichia coli D21 = system: Escherichia coli D21
Bacillus megaterium Bm11 = system: Bacillus megaterium Bm11
[19] = system: Pseudomonas aeruginosa ATCC 27853
[20] = system: Acinetobacter calcoaceticus Ac11
[21] = system: Mycobacterium tuberculosis
[22] = system: Mycobacterium tuberculosis H37Rv
[23] = system: Staphylococcus aureus KCTC 1916
[24] = system: Escherichia coli KCTC 2571
[25] = system: Pseudomonas aeruginosa KCTC 2513
[26] = system: Escherichia coli KCTC 2593
[27] = system: Pseudomonas aeruginosa KCTC 2004
[28] = system: Bacillus subtilis KCTC 3068
[29] = system: Staphylococcus aureus KCTC 3881
[30] = system: Salmonella typhimurium KCTC 1926
[31] = system: Staphylococcus epidermidis KCTC 1917
[32] = system: Bacillus subtilis KCTC 1021
[33] = system: Escherichia coli KCTC 1682
[34] = system: Staphylococcus aureus KCTC 1621
[35] = system: Bacillus subtilis KCTC 1022
[36] = system: Pseudomonas aeruginosa KCTC 1637

CC(C)C[C@H](NC(=O)[C@H](CC(C)C)NC(=O)[C@H](CC(N)=O)NC(=O)[C@H](CO)NC(=O)CNC(=O)[C@@H](NC(=O)[C@H](CCCCN)NC(=O)[C@H](CC(C)C)NC(=O)CNC(=O)[C@@H](NC(=O)[C@H](CCCCN)NC(=O)[C@H](CC(C)C)NC(=O)[C@H](CC(C)C)NC(=O)[C@H](CO)NC(=O)CNC(=O)[C@H](CC(C)C)NC(=O)[C@H](CC(C)C)NC(=O)[C@@H](N)CC(N)=O)[C@@H](C)O)C(C)C)C(N)=O [NLLGSLLKTGLKVGSNLL]
MIC (Micrococcus luteus): 2 µM (≈ 3.68 µg/mL) | MIC [1]: 128 µM (≈ 235 µg/mL) | MIC [2]: 12.5 µM (≈ 23 µg/mL) | MIC [3]: ≥ 50 µM | MIC [4]: 12.5 µM (≈ 23 µg/mL) | MIC [5]: 32 µM (≈ 58.9 µg/mL) | MIC [6]: ≥ 256 µM | MIC (Saccharomyces cerevisiae): ≥ 64 µM | MIC [7]: ≥ 50 µM

CC[C@H](C)[C@H](NC(=O)[C@H](C)NC(=O)[C@@H]1CCCN1C(=O)[C@@H](NC(=O)[C@@H](NC(=O)[C@H](Cc1cnc[nH]1)NC(=O)[C@H](C)NC(=O)[C@H](C)NC(=O)[C@@H](NC(=O)[C@H](CCCCN)NC(=O)[C@H](C)NC(=O)[C@H](CC(C)C)NC(=O)[C@@H](NC(=O)CNC(=O)[C@H](Cc1ccccc1)NC(=O)[C@H](CC(C)C)NC(=O)CN)C(C)C)C(C)C)C(C)C)C(C)C)C(=O)N[C@@H](C)C(=O)N[C@@H](CCC(=O)O)C(N)=O [GLFGVLAKVAAHVVPAIAE]
MIC [8]: ≥ 64 µM | MIC [9]: ≥ 64 µM | MIC [10]: ≥ 64 µM | MIC [11]: ≥ 64 µM

CC[C@H](C)[C@H](NC(=O)[C@H](CCCCN)NC(=O)[C@H](CCCCN)NC(=O)[C@H](Cc1ccccc1)NC(=O)[C@H](CC(C)C)NC(=O)[C@H](CCCCN)NC(=O)[C@@H](N)Cc1ccccc1)C(=O)N[C@@H](CC(C)C)C(=O)N[C@@H](CCCCN)C(=O)N[C@H](C(=O)N[C@@H](CC(C)C)C(N)=O)C(C)C [FKLFKKILKVL]
MIC [12]: 1.73 µM (≈ 2.38 µg/mL) | MIC [13]: 22.4 µM (≈ 30.8 µg/mL) | MIC [14]: ≥ 70.7 µM | MIC [15]: ≥ 35.4 µM

CC[C@H](C)[C@H](N)C(=O)N[C@@H](CO)C(=O)N[C@@H](CO)C(=O)N1CCC[C@H]1C(=O)N[C@@H](CC(C)C)C(=O)N[C@@H](Cc1ccccc1)C(=O)N[C@@H](CCCCN)C(=O)N[C@H](C(=O)N[C@@H](CC(C)C)C(=O)N[C@@H](CC(C)C)C(=O)N[C@@H](CO)C(=O)N[C@@H](C)C(=O)N[C@H](C(=O)NCC(=O)N[C@@H](CO)C(=O)N[C@@H](C)C(=O)N[C@@H](CC(C)C)C(=O)N[C@@H](CO)C(=O)N[C@@H](CO)C(=O)N[C@@H](CO)C(=O)NCC(=O)NCC(=O)N[C@@H](CCC(N)=O)C(=O)N[C@@H](CCC(=O)O)C(=O)O)C(C)C)[C@@H](C)O [ISSPLFKTLLSAVGSALSSSGGQE]
MIC [16]: ≥ 100 µM | MIC [17]: ≥ 100 µM | MIC [18]: ≥ 100 µM | MIC (Escherichia coli D21): ≥ 100 µM | MIC (Bacillus megaterium Bm11): ≥ 100 µM | MIC [19]: > 100 µM | MIC [20]: ≥ 100 µM

CC[C@H](C)[C@H](NC(=O)[C@H](CC(C)C)NC(=O)[C@H](CCCCN)NC(=O)[C@H](CC(C)C)NC(=O)[C@H](C)NC(=O)CNC(=O)[C@H](CCCCN)NC(=O)[C@H](C)NC(=O)[C@H](CC(C)C)NC(=O)[C@H](C)NC(=O)CNC(=O)[C@H](Cc1c[nH]c2ccccc12)NC(=O)[C@@H](N)Cc1ccccc1)C(=O)NCC(=O)N1CCC[C@H]1C(=O)NCC(=O)N[C@@H](CO)C(=O)N[C@@H](CC(C)C)C(=O)N[C@@H](Cc1ccccc1)C(=O)N[C@@H](CO)C(=O)N[C@@H](CO)C(=O)N[C@@H](Cc1ccccc1)C(=O)N[C@@H](CO)C(=O)N[C@@H](CCCCN)C(=O)N[C@@H](CCCCN)C(=O)N[C@@H](CC(=O)O)C(=O)O [FWGALAKGALKLIGPGSLFSSFSKKD]
MIC [1]: 12.5 µM and 25 µM | MIC [5]: 12.5 µM and 25 µM | MIC [21]: 17.6 µM (≈ 48.1 µg/mL) | MIC [22]: 29.4 µM (≈ 80.1 µg/mL)

CC[C@H](C)[C@H](NC(=O)CNC(=O)[C@H](CCCN=C(N)N)NC(=O)[C@H](Cc1ccccc1)NC(=O)[C@@H](NC(=O)[C@H](Cc1cnc[nH]1)NC(=O)[C@H](Cc1cnc[nH]1)NC(=O)[C@H](Cc1ccccc1)NC(=O)[C@@H](N)Cc1c[nH]c2ccccc12)[C@@H](C)CC)C(=O)N[C@H](C(=O)N[C@@H](Cc1cnc[nH]1)C(=O)N[C@H](C(=O)NCC(=O)N[C@@H](CCCCN)C(=O)N[C@H](C(=O)N[C@H](C(=O)N[C@@H](Cc1cnc[nH]1)C(=O)N[C@@H](CCCN=C(N)N)C(=O)N[C@@H](CC(C)C)C(=O)N[C@H](C(=O)N[C@H](C(=O)NCC(=O)O)[C@@H](C)O)C(C)C)[C@@H](C)CC)[C@@H](C)O)C(C)C)C(C)C [WFHHIFRGIVHVGKTIHRLVTG]
MIC [23]: 2 µM (≈ 5.22 µg/mL) | MIC [24]: 2 µM (≈ 5.22 µg/mL) | MIC [25]: 4 µM (≈ 10.4 µg/mL) | MIC [26]: 2 µM (≈ 5.22 µg/mL) | MIC [27]: 4 µM (≈ 10.4 µg/mL) | MIC [28]: 2 µM (≈ 5.22 µg/mL) | MIC [29]: 2 µM (≈ 5.22 µg/mL) | MIC [30]: 2 µM (≈ 5.22 µg/mL) | MIC [31]: 2 µM (≈ 5.22 µg/mL) | MIC [32]: 2 µM (≈ 5.22 µg/mL) | MIC [33]: 2 µM (≈ 5.22 µg/mL) | MIC [34]: 2 µM (≈ 5.22 µg/mL) | MIC [35]: 2 µM (≈ 5.22 µg/mL) | MIC [36]: 4 µM (≈ 10.4 µg/mL)

CC[C@H](C)[C@H](NC(=O)[C@H](C)NC(=O)[C@@H]1CCCN1C(=O)[C@@H](NC(=O)[C@@H](NC(=O)[C@H](CCCCN)NC(=O)[C@H](C)NC(=O)[C@H](C)NC(=O)[C@@H](NC(=O)[C@H](CCCCN)NC(=O)[C@H](C)NC(=O)[C@H](CC(C)C)NC(=O)[C@@H](NC(=O)CNC(=O)[C@H](Cc1ccccc1)NC(=O)[C@H](CC(C)C)NC(=O)CN)C(C)C)C(C)C)C(C)C)C(C)C)C(=O)N[C@@H](C)C(=O)N[C@@H](CCCCN)C(=O)N[C@@H](Cc1cnc[nH]1)C(=O)N[C@@H](Cc1ccccc1)C(N)=O [GLFGVLAKVAAKVVPAIAKHF]
MIC [8]: 4 µM (≈ 8.54 µg/mL) | MIC [9]: 2 µM (≈ 4.27 µg/mL) | MIC [10]: 16 µM (≈ 34.2 µg/mL) | MIC [11]: 8 µM (≈ 17.1 µg/mL)

CC[C@H](C)[C@H](NC(=O)CNC(=O)[C@H](C)NC(=O)[C@H](CC(C)C)NC(=O)[C@H](CC(C)C)NC(=O)[C@H](CCCN=C(N)N)NC(=O)[C@@H]1CCCN1C(=O)[C@H](C)NC(=O)[C@H](CC(C)C)NC(=O)[C@H](CCCCN)NC(=O)[C@H](CC(C)C)NC(=O)[C@H](CC(C)C)NC(=O)[C@H](C)N)C(=O)N[C@@H](Cc1ccccc1)C(N)=O [ALLKLAPRLLAGIF]
MIC [2]: 12.5 µM (≈ 18.7 µg/mL) | MIC [3]: ≥ 50 µM | MIC [4]: 12.5 µM (≈ 18.7 µg/mL) | MIC [7]: ≥ 50 µM
